Results on 1 molecule are retold here after US20080312128A1, “Cellular Biomarker Antioxidant Assay and Uses Thereof” (priority 2005, published 2008).

Each structure is given as a SMILES string. “Also recorded” adds a separate entry of the source.

Holding throughout (assay type): cell-based, human
One experiment deals with HO-1. The experiment in a line: Vitamin C pretreatment, OS-induced HO-1 transcription in RPE cells. The conditions noted are these: 500 μM H2O2, 1 hour and 4 hours after OS. The method, then: RNA was isolated from the cells using a no-rinse method after 1 hour or 4 hours of OS, and compared to no-OS controls. Gene-specific expression was quantified by real-time PCR on an ABI 7700 System. […] Experiments were carried out as described above. Briefly, ARPE19 cells were grown to confluence. […] Following RNA extraction and reverse transcription, real-time PCR was used to assess levels of gene transcripts, as described above. […] The data are normalized to 0 at time 0 in order to minimize the mild variability in starting values for the Ct seen within each experiment.

The next experiment relates to FosB. The experiment in a line: Vitamin C pretreatment, OS-induced FosB transcription in RPE cells. Particulars: for Inhibition of OS-induced FosB transcription: 0.0001-0.2 mM pretreatment. The method, then:
(§1) RNA was isolated from the cells using a no-rinse method after 1 hour or 4 hours of OS, and compared to no-OS controls. Gene-specific expression was quantified by real-time PCR on an ABI 7700 System. […] Experiments were carried out as described above. Briefly, ARPE19 cells were grown to confluence. […] Following RNA extraction and reverse transcription, real-time PCR was used to assess levels of gene transcripts, as described above. […] The data are normalized to 0 at time 0 in order to minimize the mild variability in starting values for the Ct seen within each experiment. […] OS strongly induces gene expression in our gene panel, and the number of transcripts (amount of induction) is proportional to the level of OS. Therefore, protective effects of an antioxidant such as Vitamin C would be expected to reduce the level of transcripts. A protective effect is reflected in an inverse dose dependent (DD) relationship between the level of antioxidant agent (Vitamin C) and the level of transcripts. Higher pretreatment levels with the antioxidant should lead to a lower level of transcripts after OS (a lower change in Ct). An extremely low dose of Vitamin C (0.0001 mM) was chosen in these studies as a homeopathic dose that is not expected to be protective and should be similar to the positive control. This control was added to ensure that all cultures were treated in the same way, as we have determined that even minimal manipulations can have significant effects upon expression of these genes.

Another experiment has as its system cFos. The experiment in a line: Vitamin C pretreatment, OS-induced cFos transcription in RPE cells. The method, then: as §1
For a further experiment, the system named is CRYBA. The experiment in a line: Vitamin C pretreatment, OS-induced CRYBA transcription in RPE cells. The conditions noted are these: for Inhibition of OS-induced CRYBA transcription: 0.0001-0.2 mM pretreatment. The method, then:
as §1

In a further experiment the test system is ATF3. The experiment in a line: Vitamin C pretreatment, OS-induced ATF3 transcription in RPE cells. As to the method: as §1, with “An extremely low dose of Vitamin C (0.0001 mM) was chosen in these studies as a homeopathic dose that is not expected to be protective and should be similar to the positive control.” left out

Take `O=C1O[C@H]([C@@H](O)CO)C(O)=C1O` [Vitamin C, L-ascorbic acid]: the “Response of HO-1 transcription after OS to pretreatment” value in the experiment on HO-1 is reported as “does not demonstrate any response; also recorded: does not appear to be reduced”. The “Inhibition of OS-induced FosB transcription” value with FosB (500 μM H2O2, 1 hour) was “modest dose response”; in the experiment with FosB (500 μM H2O2, 4 hours), “the effect is quite clear”. Also, in the experiment with FosB (summary, 500 μM H2O2), the “Activation of FosB transcription by OS following pretreatment” value was “dose-dependent reduction”. The “Inhibition of OS-induced cFos transcription” value with cFos (0.0001-0.2 mM pretreatment, 500 μM H2O2, 1 hour) was “modest threshold response”; in the experiment on cFos (0.2 mM dose, 500 μM H2O2, 1 hour) it was “strong dose-dependence”; with cFos (500 μM H2O2, 4 hours), “threshold response for the lower levels of Vitamin C is still seen”. Further, in the experiment with cFos (summary, 500 μM H2O2), the “Activation of c-Fos transcription by OS following pretreatment” value was “dose-dependent reduction”. Besides, the “Inhibition of OS-induced CRYBA transcription” value is reported as “DD response is evident” with CRYBA (500 μM H2O2, 1 hour) and “DD response is more evident” with CRYBA (500 μM H2O2, 4 hours). Besides, in the experiment on CRYBA (summary, 500 μM H2O2), the “Activation of CRYBA transcription by OS following pretreatment” value is given as “dose-dependent reduction”. Besides, the “Response of OS-induced ATF3 transcription to pretreatment” value in the experiment with ATF3 (0.0001-0.2 mM pretreatment, 500 μM H2O2) is “we do not see a response; also recorded: does not appear to be reduced; also recorded: does not inhibit”; in the experiment with ATF3 (500 μM H2O2, 4 hours), “slight threshold response may be present”.
